Data on 12 molecules can be found in patent US20060035838A1, “Drug therapy for celiac sprue” (The Board of Trustees of the Leland Stanford Junior …, priority 2002, published 2006).

Read-outs that look alike come from different tables or passages of the source. *1 amine or outer side, *2 acyl side, *3 side chain or, on linkers, in order; H or OH if unused. Where a SMILES comes first, the peptide text is derived from it. [ ]: non-standard residue; d: D form. X1 = O=C([C@@H](N[*:1])[C@@H]1CC(Cl)=NO1)[*:2]; DON = [N-]=[N+]=CC(=O)CC[C@H](N)C(=O)O

Series [1] deals with T1, recombinant human tissue transglutaminase (Homo sapiens, UniProt P21980).
T1 sequence (P21980 1-687): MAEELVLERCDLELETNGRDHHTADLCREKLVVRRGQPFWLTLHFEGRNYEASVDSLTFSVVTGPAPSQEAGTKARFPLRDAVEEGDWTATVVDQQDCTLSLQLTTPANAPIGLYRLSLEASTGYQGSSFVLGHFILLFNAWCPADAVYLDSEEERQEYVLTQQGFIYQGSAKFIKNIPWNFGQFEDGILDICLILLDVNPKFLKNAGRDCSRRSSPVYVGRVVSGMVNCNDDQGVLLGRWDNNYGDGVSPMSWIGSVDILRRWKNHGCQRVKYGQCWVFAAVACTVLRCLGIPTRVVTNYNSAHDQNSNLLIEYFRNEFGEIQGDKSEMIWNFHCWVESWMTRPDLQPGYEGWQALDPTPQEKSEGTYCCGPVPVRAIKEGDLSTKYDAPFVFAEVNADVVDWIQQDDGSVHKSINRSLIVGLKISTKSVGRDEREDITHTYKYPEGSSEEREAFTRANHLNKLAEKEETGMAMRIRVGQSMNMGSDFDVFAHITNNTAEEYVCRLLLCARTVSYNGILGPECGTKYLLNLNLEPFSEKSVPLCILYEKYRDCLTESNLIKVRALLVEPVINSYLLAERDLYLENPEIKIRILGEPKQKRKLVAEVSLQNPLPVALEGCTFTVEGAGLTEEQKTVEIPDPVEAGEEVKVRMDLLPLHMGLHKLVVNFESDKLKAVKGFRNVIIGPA
Description: Inhibition of tissue transglutaminase (residual tTG activity, glutamate dehydrogenase coupled assay). It counts as biochemical. The arrangement: made in house.

Series [2] deals with T1, recombinant human tissue transglutaminase. Description: Catalysis of reactive glutamine substrates by tissue transglutaminase. The settings on record: read-out: KM (reactive motif Gln); X = Gln, substrate.
Substrate in series [3]: NCCc1c[nH]cn1
As to the kind of experiment: purified protein, by the assay type. Conditions: other: nucleophilic amine co-substrate.

Substrate in series [4]: CC(=O)N1CCC[C@H]1C(=O)N[C@@H](CCC(N)=O)C(=O)N1CCC[C@H]1C(=O)N[C@@H](CCC(N)=O)C(=O)N[C@@H](CC(C)C)C(=O)N1CCC[C@H]1C(=O)N[C@@H](Cc1ccccc1)C(N)=O
As to the kind of experiment: purified protein, by the assay type. The settings on record: other: X = Gln, substrate; pH 7.1; 30.0 °C.

Substrate in series [5]: CC(C)C[C@H](NC(=O)[C@H](CCC(N)=O)NC(=O)[C@@H]1CCCN1C(=O)[C@H](CCC(N)=O)NC(=O)[C@@H]1CCCN1)C(=O)N1CCC[C@H]1C(=O)N[C@@H](Cc1ccc(O)cc1)C(=O)O
Description: purified protein, by the assay type. Conditions: other: X = Gln, substrate; pH 7.1; 30.0 °C.

The mark [6] stands for this setting: X = acivicin, 200 mM MOPS pH 7.1, 30° C.
The mark [7] stands for this setting: Table 3, sulfonamides and sulfonyl hydrazides, competitive inhibition constant, read-out: inhibition constant.

For the molecule `CC(C)C[C@H](NC(=O)[C@@H](NC(=O)[C@@H]1CCCN1C(=O)[C@H](CCC(N)=O)NC(=O)[C@@H]1CCCN1)[C@@H]1CC(Cl)=NO1)C(=O)N1CCC[C@H]1C(=O)N[C@@H](Cc1ccc(O)cc1)C(=O)O` [PQP—X—LPY, X=Aci, Pro-Gln-Pro-Aci-Leu-Pro-Tyr] (H-PQP[X1]LPY-OH; C-terminus assumed), the “kinh/KI (reactive motif Aci)” value in series [1] (X = acivicin) came to 18 min^−1M^−1. Moreover, the “kinh (reactive motif Aci)” value in series [1] (setting [6]) amounted to 0.014 min⁻¹.
One may read the Km as the concentration of substrate that gives half-maximal velocity. `COC(=O)[C@H](CCC(N)=O)NC(=O)OCc1ccccc1` [Cbz-X—OMe, X=Gln]: in series [2], the Km was > 30000 µM.
With `COC(=O)C(CCC(=O)C=[N+]=[N-])NC(=O)OCc1ccccc1` (centres unmarked) [Cbz-X—OMe, X=DON], in series [1] (X = 6-diazo-5-oxo-norleucine), the “kinh (reactive motif DON)” value was determined as 0.12 min⁻¹ and the “kinh/KI (reactive motif DON)” value is recorded as 890 min^−1M^−1. Further, in series [1] (X = 6-diazo-5-oxo-norleucine, read-out: KI (reactive motif DON)), the Ki came out at 0.135 mM.
Consider `CCOC(=O)[C@H](CCS(=O)(=O)NN)NC(=O)OCc1ccccc1` [(S)-2-Benzyloxycarbonylamino-4-hydrazinosulfonyl-butyric acid ethyl ester], for which the Ki in series [1] (setting [7]) was 2.2 mM.
As to `CCOC(=O)[C@H](CCS(N)(=O)=O)NC(=O)OCc1ccccc1` [(S)-2-Benzyloxycarbonylamino-4-sulfamoyl-butyric acid ethyl ester], the Ki in series [1] (setting [7]) turned out to be 4.4 mM.
Regarding `N[C@H](C(=O)O)[C@@H]1CC(Cl)=NO1` [H—X—OH, X=Aci, acivicin, reference compound], in series [1] (X = acivicin), the “kinh/KI (reactive motif Aci)” value was 0.17 min^−1M^−1. Further, the “kinh (reactive motif Aci)” value in series [1] (setting [6]) was determined as 0.015 min⁻¹. Moreover, in series [1] (X = acivicin, 200 mM MOPS pH 7.1, 30° C., read-out: KI (reactive motif Aci)), the Ki was 87 mM.
As for `[N-]=[N+]=CC(=O)CC[C@H](N)C(=O)O` [H—X—OH, X=DON, 6-diazo-5-oxo-norleucine, reference compound], in series [1] (X = 6-diazo-5-oxo-norleucine), the “kinh (reactive motif DON)” value turned out to be 0.025 min⁻¹ and the “kinh/KI (reactive motif DON)” value is reported as 0.2 min^−1M^−1.
`NS(=O)(=O)CCC(NC(=O)OCc1ccccc1)C(=O)NCC(=O)O` (centres unmarked) [Z-Sab-Gly]: in series [1] (Table 2, Sab derivatives, reversible competitive inhibition, read-out: KI), the Ki came to 8 mM.
For `CCOC(=O)[C@H](CCS(=O)(=O)NNc1ccccc1)NC(=O)OCc1ccccc1` [(S)-2-Benzyloxycarbonylamino-4-phenylhydrazinosulfonyl-butyric acid ethyl ester], the Ki in series [1] (setting [7]) was determined as 0.13 mM.
On to `CC(=O)N1CCC[C@H]1C(=O)N[C@@H](CCC(N)=O)C(=O)N1CCC[C@H]1C(=O)N[C@@H](CCC(=O)C=[N+]=[N-])C(=O)N[C@@H](CC(C)C)C(=O)N1CCC[C@H]1C(=O)N[C@@H](Cc1ccccc1)C(N)=O` [Ac—PQP—X—LPF—NH2, X=DON, Ac-Pr-Gl-Pr-DonLeu-Pr-PheNH2] (Ac-PQP[DON]LPF-NH2), for which, in series [1] (X = 6-diazo-5-oxo-norleucine), the “kinh (reactive motif DON)” value came out at 0.2 min⁻¹ and the “kinh/KI (reactive motif DON)” value was 2.9 × 10^6 min^−1M^−1.

B1: human tTGase (Homo sapiens) (protein)
chain: T1 sequence (P21980 1-687)
What is called kcat is the maximal rate divided by the concentration of active sites. For B1, in series [3], the Km is 40 µM and the kcat is 0.333 s⁻¹.

B2: recombinant human tissue transglutaminase (Homo sapiens) (protein)
chain: T1 sequence (P21980 1-687)
In general, kcat/Km refers to the turnover number divided by the Michaelis constant. As to B2, in series [4], the Km stood at 400 µM, the kcat is 0.667 s⁻¹ and the kcat/Km stood at 1620 M⁻¹ s⁻¹. In addition, the Km in series [5] is 300 µM.
